Data: US20240206463A1, “AGROCHEMICAL COMPOSITION” (NOURYON CHEMICALS INTERNATIONAL B.V., priority 2021, published 2024)
Where two headings read alike, the source gives them in different places.

Experiments:
[1] = Diluents lowering the melting point of pelargonic acid: visual appearance (crystal/clear) of pelargonic acid/diluent blends at low temperature
[2] = Wetting/spreading of a drop on a hydrophobic polystyrene dish; format: physicochemical; conditions: in water (0.5-3.7%)
Text: It was unexpectedly discovered that there is a synergy in wetting/spreading between C9 acid and phosphate ester exemplified by PE2 (C1216-30 phosphate ester). […] That is, a drop of the solution balls up with a large contact angle on the dish.

[3] = pelargonic acid 30 wt % + diluent 70 wt %
[4] = pelargonic acid 50 wt % + diluent 50 wt %
[5] = pelargonic acid 60 wt % + diluent 40 wt %
[6] = pelargonic acid 70 wt % + diluent 30 wt %
[7] = pelargonic acid 80 wt % + diluent 20 wt %
[8] = pelargonic acid 65 wt % + diluent 35 wt %
[9] = pelargonic acid 75 wt % + diluent 25 wt %

SMILES	diluent amount required to lower the melting point of pelargonic acid to 0° C. (or lower) [1]	appearance at 0° C. [1, 3]	appearance at −20° C. [1, 3]	appearance at 0° C. [1, 4]	appearance at −20° C. [1, 4]	appearance at 0° C. [1, 5]	appearance at −20° C. [1, 5]	appearance at 0° C. [1, 6]	appearance at −20° C. [1, 6]	appearance at 0° C. [1, 7]	appearance at −20° C. [1, 7]	appearance at 0° C. [1, 8]	appearance at −20° C. [1, 8]	appearance at 0° C. [1, 9]	appearance at −20° C. [1, 9]	ability to wet a hydrophobic polystyrene dish [2]	appearance at 0° C. [1]	appearance at −20° C. [1]
CCCCC(CC)C(=O)O (stereo not drawn) [2-EH acid, 2-ethyhexanoic acid]	30%	Clear	Clear	Clear	Crystal	Clear	Crystal	Clear	Crystal	Crystal	Crystal	–	–	–	–	–	–	–
CCCCC(CC)CO (stereo not drawn) [2-EH alcohol, 2-ethylhexanol]	30%	Clear	Clear	Clear	Crystal	Clear	Crystal	Clear	Crystal	Crystal	Crystal	–	–	–	–	–	–	–
CCCCOC(C)=O [Butyl Acetate]	–	Clear	Clear	Clear	Crystal	–	–	Clear	Crystal	–	–	Clear	Crystal	Clear	Crystal	–	–	–
CCCCCCCCC(=O)O [C9 acid, pelargonic acid]	–	–	–	–	–	–	–	–	–	–	–	–	–	–	–	not able to wet	–	–
CCCCCCC(=O)O [Heptanoic acid]	25%	–	–	–	–	–	–	–	–	–	–	–	–	Clear	Crystal	–	–	–
COC(=O)c1ccccc1 [Methyl benzoate]	–	–	–	–	–	–	–	–	–	–	–	–	–	–	–	–	Clear	Crystal
COC(=O)c1ccccc1O [Methyl salicylate]	35%	–	–	Clear	Crystal	–	–	Crystal	Crystal	–	–	Clear	Crystal	Crystal	Crystal	–	–	–
CCCCCCCCOC(=O)C(C)O (stereo not drawn) [Octyl lactate]	30%	Clear	Crystal	Clear	Crystal	–	–	Crystal	Crystal	–	–	Crystal	Crystal	Crystal	Crystal	–	–	–
CCCCC(=O)O [Valeric C5 acid, valeric acid]	30%	–	–	–	–	–	–	Clear	Crystal	–	–	–	–	–	–	–	–	–
C=C(C)[C@H]1CC=C(C)CC1 [d-limonene]	–	Clear	Clear	Clear	Crystal	–	–	Clear	Crystal	–	–	Clear	Crystal	Crystal	Crystal	–	–	–
CCOP(=O)(OCC)OCC [triethylphosphate]	–	–	–	–	–	–	–	–	–	–	–	–	–	–	–	–	Clear	–
